Experimental data from PMC12385147, “Discovery of Novel 2-Substituted Aniline Pyrimidine Based Derivatives as Potent Mer/c-Met Dual Inhibitors with Improvement Bioavailability” (Biomolecules, 2025).

Columns and labels:
Mer kinase = biological target: T1, Mer kinase (Homo sapiens, UniProt Q12866); assay: Mer kinase inhibition assay (TK-Sub-Biotin / cryptate detection); assay type: biochemical; conditions: means from three independent experiments
T1 construct: purchased Invitrogen (Shanghai, China)
T1 sequence (Q12866 21-999): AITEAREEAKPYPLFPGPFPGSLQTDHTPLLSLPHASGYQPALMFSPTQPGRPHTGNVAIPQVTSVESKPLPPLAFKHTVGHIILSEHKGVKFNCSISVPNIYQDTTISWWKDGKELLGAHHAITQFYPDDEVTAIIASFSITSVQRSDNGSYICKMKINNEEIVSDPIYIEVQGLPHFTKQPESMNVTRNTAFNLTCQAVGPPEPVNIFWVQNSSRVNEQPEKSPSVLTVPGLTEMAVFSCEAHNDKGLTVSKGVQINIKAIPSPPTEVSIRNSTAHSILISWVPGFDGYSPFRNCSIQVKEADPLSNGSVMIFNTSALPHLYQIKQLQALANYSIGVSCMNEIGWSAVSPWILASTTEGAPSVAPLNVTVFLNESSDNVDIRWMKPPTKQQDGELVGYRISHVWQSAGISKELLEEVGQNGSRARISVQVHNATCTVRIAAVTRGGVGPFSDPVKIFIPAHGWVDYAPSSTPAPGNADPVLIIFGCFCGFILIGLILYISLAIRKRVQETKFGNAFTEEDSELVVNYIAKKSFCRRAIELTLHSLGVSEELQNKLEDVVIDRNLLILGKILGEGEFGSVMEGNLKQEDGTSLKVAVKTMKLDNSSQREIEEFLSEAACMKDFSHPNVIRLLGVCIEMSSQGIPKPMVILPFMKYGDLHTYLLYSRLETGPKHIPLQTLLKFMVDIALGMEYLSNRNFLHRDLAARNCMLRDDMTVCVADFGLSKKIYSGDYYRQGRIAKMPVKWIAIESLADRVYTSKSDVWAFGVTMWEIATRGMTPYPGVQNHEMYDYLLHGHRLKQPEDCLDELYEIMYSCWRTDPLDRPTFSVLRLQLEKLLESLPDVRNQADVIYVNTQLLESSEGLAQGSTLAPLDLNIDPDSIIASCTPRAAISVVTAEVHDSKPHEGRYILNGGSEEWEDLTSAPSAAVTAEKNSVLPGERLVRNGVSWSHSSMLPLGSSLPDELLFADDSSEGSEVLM

MDA-MB-231 = assay: Antiproliferation CCK-8 assay, MDA-MB-231; assay type: cell-based; conditions: Homo sapiens, CCK-8, 72 h
Experimental: The HepG2, MDA-MB-231, and HCT116 cell lines were derived from our own laboratory (the laboratory of our collaborator, Dr. Xiaolei Zhou, at College of Food Science and Biology in Hebei University of Science and Technology). The antiproliferative activities were assessed using the CCK-8 assay. Cell viability was measured according to the manufacturer’s instructions for the Cell Counting Kit-8 (Meilunbio, Dalian, China). In this assay, 2.5 × 10^3 cells per well were seeded into 96-well plates.
After an initial 12 h incubation, cancer cells were exposed to varying concentrations of compound 17c for 72 h. Following CCK-8 solution addition and 2 h incubation, the absorbance at 450 nm was measured using a BioTek Synergy HTX microplate reader. Experiments included triplicate wells with three independent replicates. The IC50 values for compound 17c were derived from an analysis of the dose–response curves in GraphPad PRISM 9.5.

HCT116 cells [1] = assay: Transwell migration assay of HCT116 cells; assay type: cell-based; conditions: 24 h
Experimental: Migration assays were conducted using Transwell® inserts (Costar, Cambridge, MA, USA) with an 8 μm pore size polycarbonate membrane. HCT116 cells (1.5 × 10^5) were seeded into the upper chamber with serum-free medium containing 0.2% BSA, while the lower chamber contained medium supplemented with 15% FBS. Compound 17c was applied at the specified concentrations to both sides of the membrane. After 24 h of incubation at 37 °C, the cells were fixed in methanol and stained with 0.1% crystal violet. Non-migrated cells on the upper surface of the membrane were removed using a cotton swab. Five random fields per well were imaged under brightfield microscopy, and the number of migrated cells was quantified using ImageJ software (1.53c). Each experiment was performed in triplicate.

c-Met kinase = biological target: T2, c-Met kinase (Homo sapiens, UniProt P08581); assay: c-Met kinase inhibition assay (TK-Sub-Biotin / cryptate detection); assay type: biochemical; conditions: means from three independent experiments
T2 construct: purchased Invitrogen (Shanghai, China)

HCT116 cells [2] = assay: TUNEL apoptosis assay in HCT116 cells; assay type: cell-based; conditions: 48 h
Experimental: Apoptosis was analyzed in a dose-dependent manner using the One Step TUNEL Apoptosis Assay Kit (Meilunbio, Dalian, China). HCT116 cells (1.5 × 10^4 cells/well) were seeded onto TC-treated glass coverslips in 24-well plates and incubated for 24 h. Following this, the cells were exposed to varying concentrations of compound 17c for 48 h. After treatment, the cells were fixed with 4% paraformaldehyde and permeabilized with 0.3% Triton-X-100. TUNEL staining was performed as per the manufacturer’s guidelines, with DAPI used for nuclear counterstaining. Fluorescent images were obtained using an Olympus microscope. The ED50 value for compound 17c was calculated using GraphPad PRISM 9.5. Each assay was performed in triplicate and repeated three times for consistency.

T2 sequence (P08581 25-1390): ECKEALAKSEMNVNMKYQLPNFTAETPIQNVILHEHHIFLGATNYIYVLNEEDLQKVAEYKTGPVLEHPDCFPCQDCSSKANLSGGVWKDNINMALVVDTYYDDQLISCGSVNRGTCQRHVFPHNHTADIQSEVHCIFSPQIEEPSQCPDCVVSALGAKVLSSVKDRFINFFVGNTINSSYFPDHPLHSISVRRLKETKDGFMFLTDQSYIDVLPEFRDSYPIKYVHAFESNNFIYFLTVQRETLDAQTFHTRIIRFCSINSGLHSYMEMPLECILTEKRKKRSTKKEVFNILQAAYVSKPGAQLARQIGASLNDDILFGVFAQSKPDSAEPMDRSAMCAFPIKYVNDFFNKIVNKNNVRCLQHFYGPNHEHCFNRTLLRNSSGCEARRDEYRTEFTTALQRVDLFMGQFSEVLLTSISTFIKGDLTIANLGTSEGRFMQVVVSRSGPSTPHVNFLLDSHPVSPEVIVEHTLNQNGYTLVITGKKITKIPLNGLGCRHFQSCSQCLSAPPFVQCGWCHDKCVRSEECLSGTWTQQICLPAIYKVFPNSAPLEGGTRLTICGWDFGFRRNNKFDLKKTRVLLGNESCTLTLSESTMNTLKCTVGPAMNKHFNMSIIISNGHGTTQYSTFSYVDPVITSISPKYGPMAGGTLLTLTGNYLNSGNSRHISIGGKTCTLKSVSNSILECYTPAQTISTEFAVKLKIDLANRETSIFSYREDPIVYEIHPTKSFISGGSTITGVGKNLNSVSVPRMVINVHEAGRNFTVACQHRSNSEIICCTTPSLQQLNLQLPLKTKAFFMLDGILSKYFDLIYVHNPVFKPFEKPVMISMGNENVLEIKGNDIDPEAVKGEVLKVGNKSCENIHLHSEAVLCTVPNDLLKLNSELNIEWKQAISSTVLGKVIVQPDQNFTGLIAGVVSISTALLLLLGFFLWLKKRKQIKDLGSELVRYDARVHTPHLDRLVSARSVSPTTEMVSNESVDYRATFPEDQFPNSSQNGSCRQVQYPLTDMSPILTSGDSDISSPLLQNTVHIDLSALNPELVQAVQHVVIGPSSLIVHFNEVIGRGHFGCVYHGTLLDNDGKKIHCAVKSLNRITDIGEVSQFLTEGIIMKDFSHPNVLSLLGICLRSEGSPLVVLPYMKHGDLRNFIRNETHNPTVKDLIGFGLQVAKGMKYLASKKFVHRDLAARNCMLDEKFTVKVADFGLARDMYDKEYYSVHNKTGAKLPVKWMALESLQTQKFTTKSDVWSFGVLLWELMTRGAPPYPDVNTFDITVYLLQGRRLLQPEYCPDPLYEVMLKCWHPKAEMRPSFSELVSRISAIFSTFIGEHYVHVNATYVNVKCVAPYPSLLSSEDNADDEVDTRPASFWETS

IC50 (Mer kinase): 6.4 ± 1.8 nM | IC50 (MDA-MB-231): 2310 ± 670 nM | IC50 (c-Met kinase): 26.1 ± 7.7 nM
Compound: Cc1c(C(=O)Nc2ccc(Oc3ccnc(Nc4cccc(OC5CCN(C)CC5)c4)n3)cc2)c(=O)n(-c2ccccc2)n1C [compound 17c, 1,5-dimethyl-N-(4-((2-((3-((1-methylpiperidin-4-yl)oxy)phenyl)amino)pyrimidin-4-yl)oxy)phenyl)-3-oxo-2-phenyl-2,3-dihydro-1H-pyrazole-4-carboxamide]
inhibition of HCT116 cell migration (HCT116 cells [1]): effectively inhibits the migration capacity | ED50 apoptosis (TUNEL-positive cells) (HCT116 cells [2]): 2036 nM
